The subject of this experiment is P388 leukemia. Put plainly: NCI tumour cell line growth inhibition, 48 h.

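Exposure lasted 48 hours, with cells grown in 96-well plates and compounds tested at five concentrations. Abbreviation: GI50, concentration required for 50% inhibition of growth. TGI: total growth inhibition.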 Where only a bound is given, the exact number is not on record here.

From PubChem BioAssay (NCI) come the findings set out here.

As to `CCc1ccc([O-])c(C=NCCCN(C)CCCN=Cc2cc(C)ccc2[O-])c1.[Co+3].[N-]=[N+]=[N-]`, the GI50 is 145 µg/mL and the TGI was above 150 µg/mL.
